Experimental data reported in paper PMC5118696, “Identification of inhibitors that dually target the new permeability pathway and dihydroorotate dehydrogenase in the blood stage of Plasmodium falciparum” (Scientific Reports, 2016).
Read-outs that look alike come from different tables or passages of the source.

Columns and labels:
[1] = test system: Hyp1-NLuc Plasmodium falciparum-infected erythrocytes (new permeability pathway, NPP); experiment: microbe, parasite or virus in culture; details: Erythrocyte, 0.33 h, read-out: % of control remaining
[2] = test system: Hyp1-NLuc Plasmodium falciparum-infected erythrocytes (new permeability pathway, NPP); experiment: microbe, parasite or virus in culture; details: Erythrocyte, 0.33 h, read-out: Mean RLU at 28 min (As % of DMSO control)

## CN(N=O)C1=C(NC2CCCCC2)C(=O)c2ccccc2C1=O [MMV667492]
[1]
  activity at 2 µM: 90.8%
[2]
  activity at 2 µM: 103%

## c1ccc2c(NCCc3c[nH]c4ccccc34)c3ccccc3nc2c1 [MMV006513]
[1]
  activity at 2 µM: 106%
[2]
  activity at 2 µM: 96.2%

## CCC1(C)CC(CCNCc2ccccc2O)(c2ccc(C)cc2)CCO1 (stereo not drawn) [MMV019406]
[1]
  activity at 2 µM: 105%
[2]
  activity at 2 µM: 107%

## COc1ccc2sc(N(Cc3cccnc3)C(=O)c3ccc(C#N)cc3)nc2c1 [MMV001239]
[1]
  activity at 2 µM: 64.1%
[2]
  activity at 2 µM: 92.1%

## CCOC(=O)C1=C(c2ccccc2)N=c2sc(=Cc3cc(C)n(-c4ccc(F)cc4)c3C)c(=O)n2C1c1cccc(OC)c1OC (stereo not drawn) [MMV666601]
[1]
  activity at 2 µM: 103%
[2]
  activity at 2 µM: 105%

## O=C(NCc1ccco1)C1CCN(S(=O)(=O)c2ccc(Cl)cc2)CC1 [MMV006188]
[1]
  activity at 2 µM: 112%
[2]
  activity at 2 µM: 106%

## O=C(Nc1ccc(Br)cc1)Nc1cccc(Cl)c1 [MMV001318]
[1]
  activity at 2 µM: 107%
[2]
  activity at 2 µM: 105%

## Cc1ccc(N2C3c4ccccc4N(S(=O)(=O)c4ccc(C)cc4)C2c2ccccc2N3S(=O)(=O)c2ccc(C)cc2)cc1 [MMV007160]
[1]
  activity at 2 µM: 103%
[2]
  activity at 2 µM: 103%

## CC(=O)Nc1nnc(SCc2c(C)cc(C(C)(C)C)cc2C)s1 [MMV020700]
[1]
  activity at 2 µM: 115%
[2]
  activity at 2 µM: 114%

## O=C(Nc1ccc(CN2CCOCC2)cc1)c1ccc(-c2cc(Cl)ccc2Cl)o1 [MMV020651]
[1]
  activity at 2 µM: 103%
[2]
  activity at 2 µM: 105%

## CC1CCN(Cc2ccc(NC(=O)c3cc4ccc5cccnc5c4[nH]3)cc2)CC1 [MMV020549]
[1]
  activity at 2 µM: 90.5%
[2]
  activity at 2 µM: 102%

## Cc1ccc(C)c(Cn2c(N3CCC(C(=O)NCc4cccs4)CC3)nc3ccccc32)c1 [MMV019741]
[1]
  activity at 2 µM: 112%
[2]
  activity at 2 µM: 104%

## CCOc1ccccc1NC(=O)CN1CCN(C(=O)c2ccco2)CC1 [MMV007791]
[1]
  activity at 2 µM: 108%
[2]
  activity at 2 µM: 106%

## COc1ccc2c(c1)C1(Nc3ccccc3-c3nc4ccccc4n31)C(=O)N2 (stereo not drawn) [MMV396749]
[1]
  activity at 2 µM: 104%
[2]
  activity at 2 µM: 103%

## O=C(Nc1ccc(N2CCCCC2)c(Cl)c1)c1ccc(Br)o1 [MMV019700]
[1]
  activity at 2 µM: 118%
[2]
  activity at 2 µM: 117%

## COc1ccc(-c2cc(=O)oc3c4c(ccc23)OCN(Cc2ccc(F)cc2)C4)cc1 [MMV000604]
[1]
  activity at 2 µM: 106%
[2]
  activity at 2 µM: 104%

## O=C(CSc1ccc2nnc(-c3cccc(F)c3)n2n1)Nc1ccc2c(c1)OCO2 [MMV665918]
[1]
  activity at 2 µM: 121%
[2]
  activity at 2 µM: 106%

## CCOC(=O)c1cnc2ccc(OC)cc2c1NCc1ccccc1 [MMV665813]
[1]
  activity at 2 µM: 114%
[2]
  activity at 2 µM: 115%

## CC(O)(c1ccc(Cl)cc1)C(CN1CCCCC1)c1ccccc1 (stereo not drawn) [MMV000620]
[1]
  activity at 2 µM: 114%
[2]
  activity at 2 µM: 100%

## Cc1ccc2nc(C)cc(Nc3cccc(C(F)(F)F)c3)c2c1 [MMV000326]
[1]
  activity at 2 µM: 118%
[2]
  activity at 2 µM: 110%

## COc1ccc(C2N(C)c3ccccc3N2C)cc1 [MMV666075]
[1]
  activity at 2 µM: 123%
[2]
  activity at 2 µM: 109%

## Cc1ccc(Nc2nc(N)c3ccccc3n2)cc1Cl [MMV011522]
[1]
  activity at 2 µM: 99.9%
[2]
  activity at 2 µM: 95.7%

## CCn1c2c(c(=N)c3c1CCC3)CCCC2 [MMV000340]
[1]
  activity at 2 µM: 104%
[2]
  activity at 2 µM: 105%

## CCOC(=O)c1cnc2ccc(CC)cc2c1O [MMV007116]
[1]
  activity at 2 µM: 85.3%
[2]
  activity at 2 µM: 103%

## COc1cccc(Nc2nc(N)c3ccccc3n2)c1 [MMV019199]
[1]
  activity at 2 µM: 97.7%
[2]
  activity at 2 µM: 98.1%

## CCOc1cc2c(cc1OCC)C(c1cc(Cl)c(O)c(OCC)c1)NCC2 (stereo not drawn) [MMV000481]
[1]
  activity at 2 µM: 114%
[2]
  activity at 2 µM: 112%

## COc1ccc(-c2nc3cc(Cc4ccc5[nH]c(-c6ccc(OC)cc6)nc5c4)ccc3[nH]2)cc1 [MMV007384]
[1]
  activity at 2 µM: 45.6%
[2]
  activity at 2 µM: 82.1%

## Cc1ccc(NC(=O)Nc2cccc(Cl)c2)cc1F [MMV000911]
[1]
  activity at 2 µM: 114%
[2]
  activity at 2 µM: 115%

## Cc1ccc(C)c(-c2csc(Nc3ccc(C)c(C)c3)n2)c1 [MMV007654]
[1]
  activity at 2 µM: 91.8%
[2]
  activity at 2 µM: 94.4%

## COc1ccc(C=C2SC(=N)N(c3ccccc3OC)C2=O)cc1 [MMV666691]
[1]
  activity at 2 µM: 26.4%
[2]
  activity at 2 µM: 61.9%

## Cc1ccnc(NC(c2cccc(OCc3ccccc3)c2)c2ccc3cccnc3c2O)c1 (stereo not drawn) [MMV000720]
[1]
  activity at 2 µM: 108%
[2]
  activity at 2 µM: 102%

## O=C(CCc1ccco1)NC1CCN(CC2(c3ccc(Cl)cc3)CCC2)CC1 [MMV666108]
[1]
  activity at 2 µM: 114%
[2]
  activity at 2 µM: 100%

## CC(C)(C)CC(C)(C)NCC(O)COc1ccc(Cl)cc1Cl (stereo not drawn) [MMV396794]
[1]
  activity at 2 µM: 109%
[2]
  activity at 2 µM: 111%

## CC1CCN(Cc2c(O)ccc3cc(-c4nc5ccccc5s4)c(=O)oc23)CC1 [MMV009127]
[1]
  activity at 2 µM: 105%
[2]
  activity at 2 µM: 101%

## COc1ccc(C)c2sc(N(Cc3cccnc3)C(=O)c3ccc(C#N)cc3)nc12 [MMV001241]
[1]
  activity at 2 µM: 100%
[2]
  activity at 2 µM: 101%

## Cc1cc(C=C2SC(=Nc3ccccc3)N(C3CCCC3)C2=O)c(C)n1-c1ccc(Cl)cc1 [MMV666688]
[1]
  activity at 2 µM: 98.7%
[2]
  activity at 2 µM: 99.9%

## CN1CCN(c2c3c(c(C#N)c4nc5ccccc5n24)CCC3)CC1 [MMV008127]
[1]
  activity at 2 µM: 111%
[2]
  activity at 2 µM: 112%

## O=C(Nc1ccc(Cl)cc1C(=O)Nc1ccncc1)c1ccc(Cl)cc1Cl [MMV666057]
[1]
  activity at 2 µM: 119%
[2]
  activity at 2 µM: 105%

## O=C1CC(O)(C(F)(F)C(F)(F)F)Oc2ccccc21 (stereo not drawn) [MMV000972]
[1]
  activity at 2 µM: 82.2%
[2]
  activity at 2 µM: 90.2%

## COc1ccc2c(c1OC)C(=O)N1c3ccccc3N=C(c3ccc(C)cc3)CC21 (stereo not drawn) [MMV000917]
[1]
  activity at 2 µM: 94.9%
[2]
  activity at 2 µM: 90.9%

## COCCNC(=O)c1ccc(OC2CCN(Cc3ccc(F)c(F)c3)CC2)c(Cl)c1 [MMV666072]
[1]
  activity at 2 µM: 115%
[2]
  activity at 2 µM: 103%

## COCCN(C(=O)Cc1cccs1)C(C(=O)NCc1ccc(OC)cc1)c1ccc(C(C)C)cc1 (stereo not drawn) [MMV666105]
[1]
  activity at 2 µM: 113%
[2]
  activity at 2 µM: 100%

## Cc1ccc(CN2CCC(C(=O)Nc3ccc(-c4cc5ccccc5[nH]4)cc3)CC2)o1 [MMV666071]
[1]
  activity at 2 µM: 101%
[2]
  activity at 2 µM: 94.8%

## COc1ccc(CN2CCN(Cc3ccccc3)CC2)c(O)c1 [MMV665944]
[1]
  activity at 2 µM: 99.6%
[2]
  activity at 2 µM: 96.8%

## Cc1cccc(Nc2nc(N)c3ccccc3n2)c1 [MMV019110]
[1]
  activity at 2 µM: 106%
[2]
  activity at 2 µM: 105%

## COc1cccc(C=Cc2nc(=O)c3ccccc3o2)c1OC [MMV666693]
[1]
  activity at 2 µM: 29.9%
[2]
  activity at 2 µM: 75%

## COc1cc2cc(C(=O)Nc3ccccc3)c(N)nc2cc1OC [MMV006767]
[1]
  activity at 2 µM: 119%
[2]
  activity at 2 µM: 119%

## N=c1c2ccccc2nnn1-c1cccc(C(F)(F)F)c1 [MMV665923]
[1]
  activity at 2 µM: 89.5%
[2]
  activity at 2 µM: 94.3%

## Cc1cc(N2CCCC2)nc(Nc2ccc(NC(=O)CCc3ccccc3)cc2)n1 [MMV396669]
[1]
  activity at 2 µM: 76.3%
[2]
  activity at 2 µM: 90.3%

## CCOc1cc(CNC(C)C(O)c2ccccc2)cc(Cl)c1OCC (stereo not drawn) [MMV396633]
[1]
  activity at 2 µM: 114%
[2]
  activity at 2 µM: 113%

## Oc1ccc(Br)cc1CN1CCN(Cc2ccc(Cl)cc2)CC1 [MMV665809]
[1]
  activity at 2 µM: 91.7%
[2]
  activity at 2 µM: 93.3%

## CCCCCCOC(=O)C1=C(C)NC(=O)NC1c1ccccc1F (stereo not drawn) [MMV007686]
[1]
  activity at 2 µM: 105%
[2]
  activity at 2 µM: 107%

## c1ccc2c(NCCCCCCNc3c4c(nc5ccccc35)CCCC4)c3c(nc2c1)CCCC3 [MMV019555]
[1]
  activity at 2 µM: 109%
[2]
  activity at 2 µM: 101%

## CCOc1ccc(-c2nc(NC(=O)c3cccc(S(C)(=O)=O)c3)sc2C)cc1 [MMV665913]
[1]
  activity at 2 µM: 106%
[2]
  activity at 2 µM: 98.8%

## CCCn1c(=N)c(C(=O)NC2CCCCC2)cc2c(=O)n3cccc(C)c3nc21 [MMV008829]
[1]
  activity at 2 µM: 105%
[2]
  activity at 2 µM: 106%

## c1ccc(Cn2c(N=Nc3c(Nc4ccccc4)ccc4ccccc34)nc3ccccc32)cc1 [MMV666023]
[1]
  activity at 2 µM: 101%
[2]
  activity at 2 µM: 102%

## CCCN(CCC)CCCNC(=O)c1cc2c(-c3ccc(OC)c(OC)c3)nn(C)c2s1 [MMV000561]
[1]
  activity at 2 µM: 106%
[2]
  activity at 2 µM: 107%

## O=c1cc(NC2CCN(CCCc3ccccc3)CC2)c2cc(Cl)ccc2o1 [MMV665786]
[1]
  activity at 2 µM: 89.1%
[2]
  activity at 2 µM: 96.5%

## COc1ccc(C2C(C(=O)Nc3cccc(OC)c3)c3ccccc3C(=O)N2C2CCCCC2)cc1 (stereo not drawn) [MMV008455]
[1]
  activity at 2 µM: 115%
[2]
  activity at 2 µM: 107%

## CCN(CC)CCNc1ncnc2c1[nH]c1ccc(Br)cc12 [MMV006545]
[1]
  activity at 2 µM: 110%
[2]
  activity at 2 µM: 120%

## O=C(NCc1ccco1)C1CCN(S(=O)(=O)c2ccc(Br)cc2)CC1 [MMV007430]
[1]
  activity at 2 µM: 112%
[2]
  activity at 2 µM: 114%

## COc1ccc(Br)cc1C1Nc2ccc3ccccc3c2C2=C1C(=O)CC(c1ccccc1)C2 (stereo not drawn) [MMV020885]
[1]
  activity at 2 µM: 97.2%
[2]
  activity at 2 µM: 100%

## CC(C)(C)c1ccc2c(c1)CN(Cc1ccc(Cl)cc1)CO2 [MMV000442]
[1]
  activity at 2 µM: 113%
[2]
  activity at 2 µM: 109%

## O=C(Nc1cccc(-c2nc3ccccc3[nH]2)c1)c1cccc(NC(=O)c2ccco2)c1 [MMV665883]
[1]
  activity at 2 µM: 102%
[2]
  activity at 2 µM: 107%

## CCOc1cccc(C(=O)Nc2ccc(-c3nc4ccccc4[nH]3)cc2)c1 [MMV019202]
[1]
  activity at 2 µM: 117%
[2]
  activity at 2 µM: 118%

## CCc1ccc(Nc2cc(C)c3ccc(O)cc3n2)cc1 [MMV000570]
[1]
  activity at 2 µM: 107%
[2]
  activity at 2 µM: 106%

## O=C(NC1CCN(Cc2ccccc2)CC1)c1cc(C(=O)NC2CCN(Cc3ccccc3)CC2)cc(C(=O)NC2CCN(Cc3ccccc3)CC2)c1 [MMV019881]
[1]
  activity at 2 µM: 111%
[2]
  activity at 2 µM: 110%

## O=C(Nc1ccc(F)c(Cl)c1)Nc1ccc(Cl)c(Cl)c1 [MMV665953]
[1]
  activity at 2 µM: 125%
[2]
  activity at 2 µM: 108%

## FC(F)(F)c1cccc(CNC2CCN(CCc3ccccc3)CC2)c1 [MMV665979]
[1]
  activity at 2 µM: 112%
[2]
  activity at 2 µM: 104%
